The results in this text go back to patent publication EP2818472A1, “Imidazo[4,5-c]pyridine and pyrrolo[3,2-c]pyridine compounds as G-protein-coupled receptor kinase 5 (GRK5) modulators” (Max-Planck-Gesellschaft zur Förderung der Wissenschaften …, priority 2013, dated 2014).

In the assay the test system is beta-TC6 cells. Briefly: Insulin HTRF assay (relative activity Ar) in beta-TC6 cells. It counts as cell-based, mouse. The settings on record: Mus musculus, Beta-TC6, 4 h, insulin HTRF, supernatant of beta-TC6 cells, incubation with test compound at 37°C for 2, 3, 4h; read-out: Ar (relative activity). A digest of the protocol:
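beta-TC6 cells (15k/well, seeded 24 or 48 h) washed, then exposed to compound in induction buffer (0.5% DMSO final) for 2, 3 or 4 h at 37°C.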
(In general: Time-resolved FRET reads energy transfer from a long-lived donor to a nearby acceptor.)
Consider `CNc1nc2cnc(Nc3cccc(NC(C)=O)c3)cc2n1-c1cc(OC)c(OC)c(OC)c1` [Compound 493, N-[3-[[2-(methylamino)-1-(3,4,5-trimethoxyphenyl)imidazo[4,5-c]pyridin-6-yl]amino]phenyl]acetamide], for which the Emax lay in the range of 50 to 100%.

In the case of `CS(=O)(=O)c1cccc(Nc2nccc3[nH]c(-c4ccccc4)nc23)c1` [Compound 336, N-(3-methylsulfonylphenyl)-2-phenyl-1H-imidazo[4,5-c]pyridin-4-amine], the Emax lay in the range of 30 to 50%.

As for `Cc1cccc(CNc2nc3cnc(-c4ccc(N(C)C)cc4)cc3n2C)c1` [Compound 802, 6-(4-dimethylaminophenyl)-1-methyl-N-(m-tolylmethyl)imidazo[4,5-c]pyridin-2-amine], the Emax is 50 to 100%.

With `COc1cccc(Nc2cc3c(cn2)cc(-c2cnn(C)c2)n3C)c1` [Compound 127, N-(3-methoxyphenyl)-1-methyl-2-(1-methylpyrazol-4-yl)pyrrolo[3,2-c]pyridin-6-amine], the Emax was 50 to 100%.

For the compound `Cn1cc(-c2cc3c(Nc4cccnc4)nccc3n2C)cn1` [Compound 247, 1-methyl-2-(1-methylpyrazol-4-yl)-N-(3-pyridyl)pyrrolo[3,2-c]pyridin-4-amine], the Emax is greater than 100%.

As for `COc1cc(Nc2cc3c(cn2)cc(-c2cccc(N(C)C(C)=O)c2)n3C)cc(OC)c1OC` [Compound 158, N-methyl-N-[3-[1-methyl-6-(3,4,5-trimethoxyanilino)pyrrolo[3,2-c]pyridin-2-yl]phenyl]acetamide], the Emax is 50 to 100%.

As for `Oc1ccc(Nc2nccc3[nH]c(-c4cccc(F)c4)cc23)cc1` [Compound 199, 4-[[2-(3-fluorophenyl)-1H-pyrrolo[3,2-c]pyridin-4-yl]amino]phenol], the Emax is 50 to 100%.

As to `COc1ccc(-c2cc3c(cn2)nc(NCc2cccnc2)n3C)cc1OC` [Compound 862, 6-(3,4-dimethoxyphenyl)-1-methyl-N-(3-pyridylmethyl)imidazo[4,5-c]pyridin-2-amine], the Emax is 0 to 30%.

On to `COc1ccc(OC)c(CCNc2nc3cnc(-c4cc(OC)c(OC)c(OC)c4)cc3n2C)c1` [Compound 593, N-[2-(2,5-dimethoxyphenyl)ethyl]-1-methyl-6-(3,4,5-trimethoxyphenyl)imidazo[4,5-c]pyridin-2-amine], for which the Emax lay in the range of 30 to 50%.

Take `CN(C)C(=O)c1ccc(-c2cc3cnc(Nc4ccccc4)cc3[nH]2)cc1` [Compound 24, 4-(6-anilino-1 H-pyrrolo[3,2-c]pyridin-2-yl)-N,N-dimethyl-benzamide]: the Emax was 50 to 100%.

With `Cn1cc(-c2cc3cnc(Nc4ccncc4)cc3n2C)cn1` [Compound 135, 1-methyl-2-(1-methylpyrazol-4-yl)-N-(4-pyridyl)pyrrolo[3,2-c]pyridin-6-amine], the Emax is 50 to 100%.

Turning to `Cn1c(NCC2CC2)nc2cnc(-c3cccc(Oc4ccccc4)c3)cc21` [Compound 758, N-(cyclopropylmethyl)-1-methyl-6-(3-phenoxyphenyl)imidazo[4,5-c]pyridin-2-amine], the Emax is 0 to 30%.

Turning to `COc1cc(Nc2cc3c(cn2)nc(-c2ccncc2)n3C)cc(OC)c1OC` [Compound 724, 1-methyl-2-(4-pyridyl)-N-(3,4,5-trimethoxyphenyl)imidazo[4,5-c]pyridin-6-amine], the Emax fell in the range of 30 to 50%.

As for `COc1ccc(Nc2cc3[nH]c(-c4ccccn4)cc3cn2)c(C)c1` [Compound 63, N-(4-methoxy-2-methyl-phenyl)-2-(2-pyridyl)-1H-pyrrolo[3,2-c]pyridin-6-amine], the Emax is 50 to 100%.

In the case of `Oc1ccc(Nc2nccc3[nH]c(-c4ccccc4)cc23)cc1` [Compound 317, 4-[(2-phenyl-1H-pyrrolo[3,2-c]pyridin-4-yl)amino]phenol], the Emax lay in the range of 50 to 100%.

`c1csc(-c2nc3ccncc3[nH]2)c1` [Compound 743, 2-(2-thienyl)-3H-imidazo[4,5-c]pyridine]: the Emax lay within 30 to 50%.

For the compound `CN(C)C(=O)c1ccc(Nc2cc3c(cn2)nc(-c2cccc(F)c2)n3C)cc1` [Compound 715, 4-[[2-(3-fluorophenyl)-1-methyl-imidazo[4,5-c]pyridin-6-yl]amino]-N,N-dimethyl-benzamide], the Emax is 30 to 50%.

With `CNc1nc2cnc(Nc3ccc(C(=O)OC)cc3)cc2n1-c1ccccc1` [Compound 511, methyl 4-[[2-(methylamino)-1-phenyl-imidazo[4,5-c]pyridin-6-yl]amino]benzoate], the Emax lay within 30 to 50%.

With `CC(=O)c1cccc(Nc2nccc3c2cc(-c2ccsc2)n3C)c1` [Compound 288, 1-[3-[[1-methyl-2-(3-thienyl)pyrrolo[3,2-c]pyridin-4-yl]amino]phenyl]ethanone], the Emax is 30 to 50%.

Consider `COc1ccccc1-c1cc2c(Nc3ccc(C(N)=O)cc3)nccc2[nH]1` [Compound 294, 4-[[2-(2-methoxyphenyl)-1H-pyrrolo[3,2-c]pyridin-4-yl]amino]benzamide], for which the Emax lay in the range of 50 to 100%.

As for `Oc1cccc(Nc2nccc3[nH]c(-c4ccncc4)nc23)c1` [Compound 431, 3-[[2-(4-pyridyl)-1H-imidazo[4,5-c]pyridin-4-yl]amino]phenol], the Emax lay in the range of 50 to 100%.

Turning to `CNc1nc2cnc(Nc3ccc(C(N)=O)cc3)cc2n1-c1ccccc1` [Compound 504, 4-[[2-(methylamino)-1-phenyl-imidazo[4,5-c]pyridin-6-yl]amino]benzamide], the Emax is 50 to 100%.

For the compound `COc1ccc(Nc2cc3[nH]c(-c4cnn(C)c4)cc3cn2)cc1OC` [Compound 123, N-(3,4-dimethoxyphenyl)-2-(1-methylpyrazol-4-yl)-1H-pyrrolo[3,2-c]pyridin-6-amine], the Emax is greater than 100%.

Regarding `COc1ccc(CNc2nc3cnc(Nc4cccc(S(C)(=O)=O)c4)cc3n2C)cc1OC` [Compound 608, N2-[(3,4-dimethoxyphenyl)methyl]-1-methyl-N6-(3-methylsulfonylphenyl)imidazo[4,5-c]pyridine-2,6-diamine], the Emax lay in the range of 30 to 50%.

`COc1cccc(Nc2nccc3[nH]c(-c4ccncc4)nc23)c1` [Compound 422, N-(3-methoxyphenyl)-2-(4-pyridyl)-1H-imidazo[4,5-c]pyridin-4-amine]: the Emax lay in the range of 30 to 50%.

Turning to `CNc1nc2cnc(Nc3cc(OC)c(OC)c(OC)c3)cc2n1-c1cccc(F)c1` [Compound 679, 1-(3-fluorophenyl)-N2-methyl-N6-(3,4,5-trimethoxyphenyl)imidazo[4,5-c]pyridine-2,6-diamine], the Emax lay within 50 to 100%.

Consider `Cn1cc(-c2cc3cnc(Nc4ccc5c(c4)OCO5)cc3n2C)cn1` [Compound 143, N-(1,3-benzodioxol-5-yl)-1-methyl-2-(1-methylpyrazol-4-yl)pyrrolo[3,2-c]pyridin-6-amine], for which the Emax was greater than 100%.

Regarding `COc1ccc(Nc2cc3c(cn2)nc(NCc2ccccc2)n3C)cn1` [Compound 618, N2-benzyl-N6-(6-methoxy-3-pyridyl)-1-methyl-imidazo[4,5-c]pyridine-2,6-diamine], the Emax is 50 to 100%.

For `Cc1cccc(-c2nc3c(Nc4cccc(O)c4)nccc3[nH]2)c1` [Compound 438, 3-[[2-(m-tolyl)-1H-imidazo[4,5-c]pyridin-4-yl]amino]phenol], the Emax is 30 to 50%.

For the compound `Cn1c(NCC2CC2)nc2cnc(-c3ccccc3)cc21` [Compound 826, N-(cyclopropylmethyl)-1-methyl-6-phenyl-imidazo[4,5-c]pyridin-2-amine], the Emax lay within 30 to 50%.

As to `COc1ccc(Nc2cc3c(cn2)nc(-c2ccc(OC)c(OC)c2)n3C)cc1O` [Compound 723, 5-[[2-(3,4-dimethoxyphenyl)-1-methyl-imidazo[4,5-c]pyridin-6-yl]amino]-2-methoxy-phenol], the Emax is greater than 100%.

As for `CNc1nc2cnc(Nc3ccc4c(c3)OCCO4)cc2n1-c1cc(OC)c(OC)c(OC)c1` [Compound 487, N6-(2,3-dihydro-1,4-benzodioxin-6-yl)-N2-methyl-1-(3,4,5-trimethoxyphenyl)imidazo[4,5-c]pyridine-2,6-diamine], the Emax lay within 50 to 100%.

As to `COc1ccc(Nc2cc3[nH]c(-c4ccc(C(=O)N(C)C)cc4)cc3cn2)c(OC)c1` [Compound 20, 4-[6-(2,4-dimethoxyanilino)-1H-pyrrolo[3,2-c]pyridin-2-yl]-N,N-dimethyl-benzamide], the Emax was in the range of 50 to 100%.

As for `COc1ccc(Nc2cc3c(cn2)nc(-c2ccccc2)n3C)cc1` [Compound 705, N-(4-methoxyphenyl)-1-methyl-2-phenyl-imidazo[4,5-c]pyridin-6-amine], the Emax lay within 30 to 50%.

Take `COc1ccccc1-c1cc2c(Nc3cccc(NS(C)(=O)=O)c3)nccc2[nH]1` [Compound 298, N-[3-[[2-(2-methoxyphenyl)-1H-pyrrolo[3,2-c]pyridin-4-yl]amino]phenyl]methanesulfonamide]: the Emax lay in the range of 50 to 100%.

With `Cn1c(-c2ccsc2)cc2c(Nc3ccccn3)nccc21` [Compound 280, 1-methyl-N-(2-pyridyl)-2-(3-thienyl)pyrrolo[3,2-c]pyridin-4-amine], the Emax was in the range of 30 to 50%.

As for `COc1ccc(Nc2nccc3[nH]c(-c4cccc(F)c4)nc23)cn1` [Compound 405, 2-(3-fluorophenyl)-N-(6-methoxy-3-pyridyl)-1H-imidazo[4,5-c]pyridin-4-amine], the Emax lay in the range of 30 to 50%.

In the case of `CNc1nc2cnc(Nc3ccccn3)cc2n1-c1cccc(C(F)(F)F)c1` [Compound 548, N2-methyl-N6-(2-pyridyl)-1-[3-(trifluoromethyl)phenyl]imidazo[4,5-c]pyridine-2,6-diamine], the Emax lay within 30 to 50%.

As to `COCCNc1nc2cnc(Nc3ccc(C(=O)OC)cc3)cc2n1C` [Compound 649, methyl 4-[[2-(2-methoxyethylamino)-1-methyl-imidazo[4,5-c]pyridin-6-yl]amino]benzoate], the Emax fell in the range of 50 to 100%.

As for `CS(=O)(=O)c1ccc(Nc2cc3c(cn2)ncn3CC2CC2)cc1` [Compound 696, 1-(cyclopropylmethyl)-N-(4-methylsulfonylphenyl)imidazo[4,5-c]pyridin-6-amine], the Emax lay within 30 to 50%.

With `CC(C)c1ccc(Nc2nccc3c2ncn3Cc2ccccc2)cc1` [Compound 457, 1-benzyl-N-(4-isopropylphenyl)imidazo[4,5-c]pyridin-4-amine], the Emax lay in the range of 30 to 50%.
